Experimental data: patent US7189748B2, “Compounds and methods for treating insulin resistance and cardiomyopathy” (Forbes Medi-Tech (Research), Inc., priority 2004, dated 2007)

Tests used:
[1] = system: SPT; conditions: literature statement; cited from earlier work
[2] = target: T1, SPT (Homo sapiens, UniProt O15269+O15270); test: Serine palmitoyltransferase activity, Assay C ([3H]serine incorporation into lipids, cell homogenate); type: biochemical; conditions: for inhibition of SPT (in words): Assay C, at the doses of Table 2
T1 construct: endogenous in cells
T1 sequence (O15269 1-473): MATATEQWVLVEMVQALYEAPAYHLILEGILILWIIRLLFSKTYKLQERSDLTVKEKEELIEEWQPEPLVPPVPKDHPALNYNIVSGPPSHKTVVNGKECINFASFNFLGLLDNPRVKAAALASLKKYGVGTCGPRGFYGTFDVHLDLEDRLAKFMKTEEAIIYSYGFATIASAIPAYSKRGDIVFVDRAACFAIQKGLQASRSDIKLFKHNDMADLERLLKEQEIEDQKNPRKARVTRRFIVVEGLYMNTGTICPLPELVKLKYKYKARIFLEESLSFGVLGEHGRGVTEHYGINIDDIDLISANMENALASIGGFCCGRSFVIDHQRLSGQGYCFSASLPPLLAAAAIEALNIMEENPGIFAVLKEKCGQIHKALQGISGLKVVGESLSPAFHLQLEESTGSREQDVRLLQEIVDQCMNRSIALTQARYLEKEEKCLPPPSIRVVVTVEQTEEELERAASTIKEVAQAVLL
T1 sequence (O15270 1-562): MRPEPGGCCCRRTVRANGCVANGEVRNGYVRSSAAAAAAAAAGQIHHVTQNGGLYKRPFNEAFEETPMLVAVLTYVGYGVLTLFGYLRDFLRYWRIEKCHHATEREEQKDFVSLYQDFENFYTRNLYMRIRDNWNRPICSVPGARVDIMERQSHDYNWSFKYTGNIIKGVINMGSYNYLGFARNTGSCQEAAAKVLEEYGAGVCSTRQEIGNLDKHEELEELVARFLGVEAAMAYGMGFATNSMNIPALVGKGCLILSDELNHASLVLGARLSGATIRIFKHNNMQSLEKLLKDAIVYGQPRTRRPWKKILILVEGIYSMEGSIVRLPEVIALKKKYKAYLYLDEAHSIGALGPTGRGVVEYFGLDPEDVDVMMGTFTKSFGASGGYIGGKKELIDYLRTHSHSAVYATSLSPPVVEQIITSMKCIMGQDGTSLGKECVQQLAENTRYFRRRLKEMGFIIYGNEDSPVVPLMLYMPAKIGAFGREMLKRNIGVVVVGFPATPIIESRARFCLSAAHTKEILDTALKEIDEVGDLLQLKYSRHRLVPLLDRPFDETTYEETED
T1 sequence (Q969W0 1-71 partner): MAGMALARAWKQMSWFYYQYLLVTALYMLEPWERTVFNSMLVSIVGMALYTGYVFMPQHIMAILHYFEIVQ
Description: An alternative assay for evaluating inhibition of SPT, the enzyme present in commonly cultured cells, is performed with CHO cells or a human cell line. Cells are washed three times with ice-cold phosphate-buffered saline (PBS). A total of 0.5 mL of lysis buffer [50 mM Hepes (pH 8.0) containing 5 mM ethylenediaminetetraacetic acid (EDTA) and 5 mM dithiothreitol (DTT)] is added to each dish. The cells are scraped using a rubber policeman, and are then transferred to a test tube on ice. The cell suspension is sonicated three times for 5 s at 1–2 min intervals on ice. Protein concentrations in cell homogenates are measured using a Bradford protein assay kit (Bio-Rad). To measure the SPT activity, 0.1 mL of cell homogenates are added to 0.1 mL of reaction buffer [20 mM Hepes (pH 8.0) containing 5 mM EDTA, 10 mM DTT, 50 μM pyridoxal-5′-phosphate, 0.4 mM palmitoyl CoA, 2 mM L-serine, 10 μCi of [^3H]serine, and test compound or standard inhibitor (myriocin). After incubation at 37° C. for 20 min with shaking, the reaction is terminated with 0.5 mL of 0.5 N NH4OH containing 10 mM L-serine. The lipid products are extracted using the solvent system: 3 mL of chloroform/methanol (1:2), 25 μg of sphingosine (1 mg/mL in ethanol) as a carrier, 2 mL of chloroform, and 3.8 mL of 0.5 N NH4OH. After vigorous mixing, the phases are separated by centrifugation at 2500 rpm for 5 min. The aqueous layer is removed by aspiration, and the lower chloroform layer is washed 3 times with 4.5 mL of water. The chloroform layer is transferred to a scintillation vial, and the solvent is evaporated under N2 gas. The radioactivity is measured with a LS6000TA liquid scintillation counter (Beckman). Nonspecific conversion of [^3H] serine to chloroform-soluble species is determined by performing the assay in the absence of palmitoyl CoA. The count of the background is about one-sixth of the count of 100% activity.
An alternative assay using a non-chlorinated solvent modification of the Blye and Dyer lipid extraction method reported in Smedes (Smedes, F., Analyst 124:1711–18 (1999)) was employed to evaluate exemplary compounds. In this approach, the cells were washed three times with ice-cold phosphate-buffered saline and 0.5 mL of lysis buffer was added to each dish. The cells were scraped using a rubber policeman and transfer to a test tube on ice. The cell suspension was sonicated three times for 5 s at 1–2 min intervals on ice. A 0.1 mL sample of cell homogenates were added to 0.1 mL of reaction buffer in a test tube containing the appropriate concentration of test substance and 10 μCi of [^3H] serine. The reaction mixture was incubated at 37° C. for 20 min with shaking, and the reaction was terminated with 0.5 mL of […] NH4OH stop solution containing 10 mM unlabeled L-serine. Total lipids are extracted by transferring the contents of the test tube into a 15 ml centrifuge tube containing: 4.5 mL of isopropanol/cyclohexane (4:5) containing 25 μg of sphingosine (1 mg/mL in ethanol and diluted into the isopropanol/cyclohexane mixture) as a carrier. The contents were mixed vigorously and 4 mL of 0.5 N NH4OH was added. The phases were separated by centrifugation at 2500 rpm for 5 min. An accurately measured portion of the organic layer (4.0 ml) was added to a scintillation vial with 1 ml of water. Ultima Gold F (5 ml) was added, the vial was vortexed and allowed to settle into separate layers. The amount of [^3H] serine radioactivity incorporated into lipids was quantified in a scintillation counter. Non-specific counts were determined by carrying out the assay with control samples containing no palmitoyl CoA.

[3] = system: Rat pancreatic islets; test: Protection of islets from fatty acid (palmitate) induced apoptosis, propidium iodide flow cytometry; type: cell-based; conditions: 3 days; for % Apoptosis: Fatty Acid medium (1 millimolar sodium palmitate), Control medium 2.40, Fatty Acid medium 17.60
Description: Islet protection by an exemplary compound was evaluated in an assay according to Eitel, K, et al (2002), and results obtained in this assay are reported below in Table 4. Rat pancreatic islets were cultured with control medium (RPMI 1640 supplemented with 10% fetal bovine serum, antibiotics and made […]) or in medium supplemented with 1 millimolar sodium palmitate (Fatty Acid Medium) during a period of 3 days. The culture medium was changed after 2 days to an identical composition culture medium with fresh inhibitor in the appropriate wells. Cells were stained with propidium iodide (PI), washed and propidium staining of cells (as a measure of cellular DNA content) was assessed by flow cytometry. The percentage of cells having less than the normal amount of PI staining was considered to be apoptotic cells (Eitel, K, et al. (2002)).

[4] = system: beta cell apoptosis; conditions: diabetic Zucker fatty rat model; cited from earlier work
[5] = 1 nM, Table 2, No Inhibitor 4443/4483, no CoA blank 305
[6] = 10 nM, Table 2, No Inhibitor 4443/4483, no CoA blank 305

| SMILES | activity against SPT (in words) [1] | Counts [2, 5] | Counts [2, 6] | inhibition of SPT (in words) [2] | % Apoptosis [3] | other results |
| --- | --- | --- | --- | --- | --- | --- |
| CCCCCCCCc1ccc(CCC(N)(CO)CO)cc1 [FTY720] | do not inhibit SPT |  |  |  |  |  |
| CCCCCCCCc1ccc(CCC(N)(CO)C(=O)O)cc1 (stereo not shown) [Compound 2] | did not exhibit activity against SPT |  |  |  |  |  |
| CCCCCCCOc1ccc(CCC(N)(CO)C(=O)O)cc1 (stereo not shown) [Compound 12] |  | 4215 | 4118 | moderate activity | 2.33% | Counts ([2]; 100 nM, Table 2, No Inhibitor 4443/4483, no CoA blank 305): 4258; Counts ([2]; 1 μM, Table 2, No Inhibitor 4443/4483, no CoA blank 305): 4169; Counts ([2]; 10 μM, Table 2, No Inhibitor 4443/4483, no CoA blank 305): 4608; protection of cells from the fatty acid treatment (in words) ([3]; rat islets, fatty acid medium): fully protect cells |
| N[C@@H]1CON=C1O [cycloserine] |  |  |  |  |  | partial beta cell protective effect [4]: ~50 % activity |
| CCCCCCC(=O)CCCCCC/C=C/C[C@@H](O)[C@H](O)[C@@](N)(CO)C(=O)O [ISP, myriocin] |  | 2509 | 535 | potent but non-selective inhibition of SPT | 14.65% | Counts ([2]; 10 nM, Table 3, Control 5816, No Palm CoA 611): 959 |
